Experiment [1] deals with Rattus norvegicus. The experiment in a line: Local anaesthetic activity in Rattus norvegicus Wistar (rat) sciatic nerve block model assessed as time duration of loss of motor activity at 1 % solution measured over 45 min post injection. The experiment is classed as functional.
For experiment [2], the system named is Mus musculus. The experiment in a line: Local anaesthetic activity in sc dosed Mus musculus Swiss (mouse) tail assessed as loss of pain reflex measured with in 30 secs. The experiment is classed as functional, organism-based.
For experiment [3], the system named is Oryctolagus cuniculus. The experiment in a line: Corneal anaesthetic activity in New Zealand Oryctolagus cuniculus (rabbit) assessed as inhibition of Frey's horse hair-induced blink reflex at 2 % solution relative to lidocaine. The experiment is classed as functional.
For experiment [4], the system named is Rattus norvegicus. The experiment in a line: Local anaesthetic activity in Rattus norvegicus Wistar (rat) sciatic nerve block model assessed as time duration of loss of motor activity at 2 % solution measured until first sign of motor activity.

One may read the IC50 as the midpoint of a concentration-inhibition curve. In the case of `CCN(CC)CC(=O)Nc1nc(-c2ccc(F)cc2Cl)cs1`, the figures for the Time in experiment [1] and in experiment [4] were 25 min and 45 min, respectively. For the same compound, the half-inhibitory concentration (IC50) in experiment [2] was found to be 23 mM. Also, in experiment [3], the “inhibition (INH)” value is on record as 44.3%.

In the case of `CCN(CC)CC(=O)Nc1nnc(Cc2ccc(OC)cc2)s1`, the Time in experiment [1] is 77 min; in experiment [4] it was 72 min. For the same compound, the concentration for half-maximal inhibition (IC50) in experiment [2] stood at 36 mM. Also, in experiment [3], the “inhibition (INH)” value amounted to 54.2%.

As to `CCN(CC)CC(=O)Nc1nnc(Cc2ccc(F)cc2)s1`, the Time in experiment [1] is 90 min; in experiment [4], 210 min. In addition, the IC50 in experiment [2] turned out to be 17 mM. Further, in experiment [3], the “inhibition (INH)” value is 88.3%.

As for `O=C(CN1CCCCC1)Nc1nc(-c2ccc(F)cc2Cl)cs1`, the Time in experiment [1] amounted to 40 min; in experiment [4], 160 min. Moreover, the half-maximal inhibitory concentration (IC50) in experiment [2] turned out to be 7.2 mM. For the same compound, in experiment [3], the “inhibition (INH)” value is reported as 42.6%.

With `COc1ccc(Cc2nnc(NC(=O)CN3CCCCC3)s2)cc1`, the Time was 35 min in experiment [1] and 160 min in experiment [4]. Moreover, the IC50 in experiment [2] was found to be 24 mM. The “inhibition (INH)” value in experiment [3] is 34.8%.

On to `O=C(CN1CCCCC1)Nc1nnc(Cc2ccc(F)cc2)s1`, for which the results for the Time in experiment [1] and in experiment [4] were 40 min and 180 min, respectively. The IC50 in experiment [2] turned out to be 6.6 mM. Also, in experiment [3], the “inhibition (INH)” value came out at 92.6%.

With `O=C(CN1CCOCC1)Nc1nc(-c2ccc(F)cc2Cl)cs1`, the Time came out at 75 min in experiment [1] and 150 min in experiment [4]. The IC50 in experiment [2] came out at 32 mM. Further, the “inhibition (INH)” value in experiment [3] worked out at 25.6%.

As for `COc1ccc(Cc2nnc(NC(=O)CN3CCOCC3)s2)cc1`, the results for the Time in experiment [1] and in experiment [4] were 117 min and 63 min, respectively. For the same compound, the IC50 in experiment [2] was determined as 47 mM. For the same compound, the “inhibition (INH)” value in experiment [3] turned out to be 40.2%.

`O=C(CN1CCOCC1)Nc1nnc(Cc2ccc(F)cc2)s1`: the results for the Time in experiment [1] and in experiment [4] were 25 min and 50 min, respectively. Moreover, the IC50 in experiment [2] came out at 12.3 mM. Further, in experiment [3], the “inhibition (INH)” value amounted to 72.1%.

`CCN(CC)CC(=O)Nc1c(C)cccc1C.Cl`: the Time in experiment [1] is reported as 65 min; in experiment [4], 117 min. Besides, the IC50 in experiment [2] worked out at 9.2 mM.

The values above are taken from ChEMBL document CHEMBL3046599, “Synthesis and local anaesthetic activities of 2-aminothiazole/thiadiazole analogues of lidocaine” (Med Chem Res, 2012).
